Where two headings read alike, the source gives them in different places. Blank lines part the entries; values can stand above or below the compound they belong to.
Legend:
[1] = test system: MDA-MB-436 (a BRCA-1-mutated breast cancer cell line); experiment: Cell proliferation assay, three-day, CellTiter-Glo, MDA-MB-436; format: cell-based; details: Homo sapiens; for inhibition at 0.00508 µM: MDA-MB-436, MDA-MB-436, Conc. 0.00508 uM; for inhibition at 0.0152 µM: MDA-MB-436, MDA-MB-436, Conc. 0.0152 uM; for inhibition at 0.0457 µM: MDA-MB-436, MDA-MB-436, Conc. 0.0457 uM; for inhibition at 0.41 µM: MDA-MB-436, MDA-MB-436, Conc. 0.41 uM; for inhibition at 1.23 µM: MDA-MB-436, MDA-MB-436, Conc. 1.23 uM; for inhibition at 3.7 µM: MDA-MB-436, MDA-MB-436, Conc. 3.70 uM; for inhibition at 11.11 µM: MDA-MB-436, MDA-MB-436, Conc. 11.11 uM; for inhibition at 33.33 µM: MDA-MB-436, MDA-MB-436, Conc. 33.33 uM; for inhibition at 100 µM: MDA-MB-436, MDA-MB-436, Conc. 100.00 uM; for IC50: MDA-MB-436, 72 h, CellTiter-Glo, read-out: MDA-MB-436 IC50
Procedure, shortened: (§1)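 Cells seeded overnight in 384-well plates, then exposed to compounds (DMSO stock diluted in medium) for 72 h at 37 °C, 5% CO2. Viability read as CellTiter-Glo luminescence after 60 min at room temperature.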

PARP-2 = target: T1, PARP-2 (Homo sapiens, UniProt Q9UGN5); experiment: PARP-2 inhibition assay (PARP-2 Chemiluminescent Assay Kit, BPS Bioscience); format: biochemical; details: for inhibition at 0.01 µM: 10 nM compound
T1 construct: purchased BPS Bioscience 80552
Description: (§2) The PARP-1 and PARP-2 inhibition assays were performed in outsourcing, by a CRO company, Shanghai Medicilon Inc. (Shanghai, China). […] Briefly, PARP-1 or PARP-2 biotinylated substrate was incubated with compounds or solvent control at varying concentrations and an assay buffer containing the PARP-1 or PARP-2 enzyme.

[2] = test system: CAPAN-1 (a BRCA-2-mutated pancreatic cancer cell line); experiment: Cell proliferation assay, three-day, CellTiter-Glo, CAPAN-1; format: cell-based; details: for IC50 / inhibition at 0.00508 µM / inhibition at 0.0152 µM / inhibition at 0.0457 µM / inhibition at […] / inhibition at 0.41 µM / inhibition at 1.23 µM / inhibition at 3.7 µM / inhibition at 11.11 µM / inhibition at 33.33 µM / inhibition at 100 µM: Homo sapiens; for IC50: CAPAN-1, 72 h, CellTiter-Glo, read-out: CAPAN-1 IC50
Procedure, shortened: as §1

PARP-1 = target: T2, PARP-1 (Homo sapiens, UniProt P09874); experiment: PARP-1 inhibition assay (PARP-1 Chemiluminescent Assay Kit, BPS Bioscience); format: biochemical; details: for inhibition at 0.01 µM: 10 nM compound
T2 construct: purchased BPS Bioscience 80569
Description: as §2

[3] = supplement sheet, read-out: 10 nM inhibition% PAPR-2
[4] = read-out: PARP-2 Inhibition % (10 nM)
[5] = supplement sheet, read-out: 10 nM inhibition% PAPR-1
[6] = read-out: PARP-1 Inhibition % (10 nM)

T2 sequence (P09874 whole entry): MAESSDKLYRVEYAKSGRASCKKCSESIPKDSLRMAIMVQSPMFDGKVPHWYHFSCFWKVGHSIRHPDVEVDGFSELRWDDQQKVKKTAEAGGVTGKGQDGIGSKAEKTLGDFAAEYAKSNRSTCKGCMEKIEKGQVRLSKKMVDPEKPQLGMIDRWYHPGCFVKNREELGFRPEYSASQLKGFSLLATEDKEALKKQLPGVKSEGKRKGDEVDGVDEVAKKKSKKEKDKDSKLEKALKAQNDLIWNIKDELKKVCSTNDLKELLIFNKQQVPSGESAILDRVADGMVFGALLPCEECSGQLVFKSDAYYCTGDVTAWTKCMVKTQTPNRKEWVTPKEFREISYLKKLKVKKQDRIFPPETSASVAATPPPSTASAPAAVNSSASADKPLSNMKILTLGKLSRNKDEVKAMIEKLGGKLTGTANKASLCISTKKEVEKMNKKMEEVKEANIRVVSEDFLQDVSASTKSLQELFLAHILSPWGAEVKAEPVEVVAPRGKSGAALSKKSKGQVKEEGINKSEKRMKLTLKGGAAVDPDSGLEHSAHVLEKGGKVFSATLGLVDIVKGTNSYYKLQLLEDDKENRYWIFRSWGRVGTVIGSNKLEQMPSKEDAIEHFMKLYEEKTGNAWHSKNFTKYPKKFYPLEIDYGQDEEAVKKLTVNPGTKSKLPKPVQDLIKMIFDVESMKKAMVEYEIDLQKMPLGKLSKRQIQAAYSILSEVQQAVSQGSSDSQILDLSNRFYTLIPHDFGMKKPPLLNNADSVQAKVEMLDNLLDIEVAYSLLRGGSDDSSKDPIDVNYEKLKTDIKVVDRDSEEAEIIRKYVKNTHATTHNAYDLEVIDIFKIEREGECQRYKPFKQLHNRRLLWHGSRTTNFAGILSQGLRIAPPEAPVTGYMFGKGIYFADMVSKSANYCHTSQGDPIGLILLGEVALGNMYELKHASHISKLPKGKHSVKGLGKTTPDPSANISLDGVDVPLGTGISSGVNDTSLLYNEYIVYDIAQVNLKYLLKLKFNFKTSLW
T1 sequence (Q9UGN5 whole entry): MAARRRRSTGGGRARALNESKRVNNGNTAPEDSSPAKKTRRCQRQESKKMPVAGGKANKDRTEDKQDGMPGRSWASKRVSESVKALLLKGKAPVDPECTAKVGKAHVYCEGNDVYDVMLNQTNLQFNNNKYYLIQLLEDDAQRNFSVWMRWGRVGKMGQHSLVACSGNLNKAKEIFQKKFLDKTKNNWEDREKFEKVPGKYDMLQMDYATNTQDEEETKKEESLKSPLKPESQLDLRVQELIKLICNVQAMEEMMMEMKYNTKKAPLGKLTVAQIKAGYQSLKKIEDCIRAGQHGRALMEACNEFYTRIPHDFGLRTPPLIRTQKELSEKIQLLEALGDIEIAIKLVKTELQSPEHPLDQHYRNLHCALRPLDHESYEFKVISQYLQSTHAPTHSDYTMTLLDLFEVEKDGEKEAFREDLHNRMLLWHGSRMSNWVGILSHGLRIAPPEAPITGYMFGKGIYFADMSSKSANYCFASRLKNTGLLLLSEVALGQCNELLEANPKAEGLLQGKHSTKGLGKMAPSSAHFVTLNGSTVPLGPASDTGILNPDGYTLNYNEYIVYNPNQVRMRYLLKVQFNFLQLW

IC50 [1]: > 100000 nM | inhibition at 0.01 µM (PARP-2; [3]): 39.1% | inhibition at 0.01 µM (PARP-2; [4]): 39.1% | IC50 [2]: > 100000 nM | inhibition at 0.01 µM (PARP-1; [5]): 19.4% | inhibition at 0.01 µM (PARP-1; [6]): 19.4%
SMILES: NC(=O)c1cccc2[nH]c(C3CCN(CCCNC(=O)c4ccccc4)C3)nc12 (stereo not drawn) [Compound 5cn, 2-(1-(3-Benzamidopropyl)pyrrolidin-3-yl)-1H-benzo[d]imidazole-4-carboxamide]
inhibition at 0.00508 µM ([1]; replicate 1, read-out: Inh % 1): 1.6% | inhibition at 0.00508 µM ([1]; replicate 2, read-out: Inh % 2): -5.1% | inhibition at 0.0152 µM ([1]; replicate 1, read-out: Inh % 1): -1.4% | inhibition at 0.0152 µM ([1]; replicate 2, read-out: Inh % 2): -3.5% | inhibition at 0.0457 µM ([1]; replicate 1, read-out: Inh % 1): -9.2% | inhibition at 0.0457 µM ([1]; replicate 2, read-out: Inh % 2): -11% | inhibition at 0.41 µM ([1]; replicate 1, read-out: Inh % 1): -8.3% | inhibition at 0.41 µM ([1]; replicate 2, read-out: Inh % 2): -13.4% | inhibition at 1.23 µM ([1]; replicate 1, read-out: Inh % 1): -3% | inhibition at 1.23 µM ([1]; replicate 2, read-out: Inh % 2): -5.3% | inhibition at 3.7 µM ([1]; replicate 1, read-out: Inh % 1): -5.2% | inhibition at 3.7 µM ([1]; replicate 2, read-out: Inh % 2): -8.2% | inhibition at 11.11 µM ([1]; replicate 1, read-out: Inh % 1): -2.1% | inhibition at 11.11 µM ([1]; replicate 2, read-out: Inh % 2): -9.2% | inhibition at 33.33 µM ([1]; replicate 1, read-out: Inh % 1): 12.1% | inhibition at 33.33 µM ([1]; replicate 2, read-out: Inh % 2): 1.5% | inhibition at 100 µM ([1]; replicate 1, read-out: Inh % 1): 21.7% | inhibition at 100 µM ([1]; replicate 2, read-out: Inh % 2): 20.8% | inhibition at 0.00508 µM ([2]; CAPAN-1, Conc. 0.00508 uM, replicate 1, read-out: Inh % 1): 9.5% | inhibition at 0.00508 µM ([2]; CAPAN-1, Conc. 0.00508 uM, replicate 2, read-out: Inh % 2): -3.8% | inhibition at 0.0152 µM ([2]; CAPAN-1, Conc. 0.0152 uM, replicate 1, read-out: Inh % 1): -9.3% | inhibition at 0.0152 µM ([2]; CAPAN-1, Conc. 0.0152 uM, replicate 2, read-out: Inh % 2): -9.4% | inhibition at 0.0457 µM ([2]; CAPAN-1, Conc. 0.0457 uM, replicate 1, read-out: Inh % 1): 1% | inhibition at 0.0457 µM ([2]; CAPAN-1, Conc. 0.0457 uM, replicate 2, read-out: Inh % 2): 6.5% | inhibition at […] ([2]; CAPAN-1, Conc. 0.14 uM, replicate 1, read-out: Inh % 1): 4.6% | inhibition at […] ([2]; CAPAN-1, Conc. 0.14 uM, replicate 2, read-out: Inh % 2): -10% | inhibition at 0.41 µM ([2]; CAPAN-1, Conc. 0.41 uM, replicate 1, read-out: Inh % 1): -2.8% | inhibition at 0.41 µM ([2]; CAPAN-1, Conc. 0.41 uM, replicate 2, read-out: Inh % 2): -4.1% | inhibition at 1.23 µM ([2]; CAPAN-1, Conc. 1.23 uM, replicate 1, read-out: Inh % 1): 3.1% | inhibition at 1.23 µM ([2]; CAPAN-1, Conc. 1.23 uM, replicate 2, read-out: Inh % 2): -3.2% | inhibition at 3.7 µM ([2]; CAPAN-1, Conc. 3.70 uM, replicate 1, read-out: Inh % 1): 5.2% | inhibition at 3.7 µM ([2]; CAPAN-1, Conc. 3.70 uM, replicate 2, read-out: Inh % 2): -3% | inhibition at 11.11 µM ([2]; CAPAN-1, Conc. 11.11 uM, replicate 1, read-out: Inh % 1): 2.8% | inhibition at 11.11 µM ([2]; CAPAN-1, Conc. 11.11 uM, replicate 2, read-out: Inh % 2): -7.6% | inhibition at 33.33 µM ([2]; CAPAN-1, Conc. 33.33 uM, replicate 1, read-out: Inh % 1): 5.2% | inhibition at 33.33 µM ([2]; CAPAN-1, Conc. 33.33 uM, replicate 2, read-out: Inh % 2): 2% | inhibition at 100 µM ([2]; CAPAN-1, Conc. 100.00 uM, replicate 1, read-out: Inh % 1): 27.8% | inhibition at 100 µM ([2]; CAPAN-1, Conc. 100.00 uM, replicate 2, read-out: Inh % 2): 14.3%

IC50 [1]: > 100000 nM | inhibition at 0.01 µM (PARP-2; [3]): 66.2% | inhibition at 0.01 µM (PARP-2; [4]): 66.2% | IC50 (PARP-2; read-out: PARP-2 IC50): 3.3 nM | IC50 (PARP-2; supplement sheet, read-out: IC50 PAPR-2): 3.33 nM | IC50 [2]: > 100000 nM | inhibition at 0.01 µM (PARP-1; [5]): 47.5% | inhibition at 0.01 µM (PARP-1; [6]): 47.5% | IC50 (PARP-1; read-out: PARP-1 IC50): 7.1 nM | IC50 (PARP-1; supplement sheet, read-out: IC50 PAPR-1): 7.14 nM
SMILES: NC(=O)c1cccc2[nH]c(C3CCN(CCCNc4ccccc4)C3)nc12 (stereo not drawn) [Compound 5ch, 2-(1-(3-(Phenylamino)propyl)pyrrolidin-3-yl)-1H-benzo[d]imidazole-4-carboxamide]
inhibition at 0.00508 µM ([1]; replicate 1, read-out: Inh % 1): -7% | inhibition at 0.00508 µM ([1]; replicate 2, read-out: Inh % 2): -8.2% | inhibition at 0.0152 µM ([1]; replicate 1, read-out: Inh % 1): -3% | inhibition at 0.0152 µM ([1]; replicate 2, read-out: Inh % 2): -8% | inhibition at 0.0457 µM ([1]; replicate 1, read-out: Inh % 1): -14.2% | inhibition at 0.0457 µM ([1]; replicate 2, read-out: Inh % 2): -14.8% | inhibition at 0.41 µM ([1]; replicate 1, read-out: Inh % 1): -13.7% | inhibition at 0.41 µM ([1]; replicate 2, read-out: Inh % 2): -16% | inhibition at 1.23 µM ([1]; replicate 1, read-out: Inh % 1): -13.7% | inhibition at 1.23 µM ([1]; replicate 2, read-out: Inh % 2): -10.6% | inhibition at 3.7 µM ([1]; replicate 1, read-out: Inh % 1): -16.2% | inhibition at 3.7 µM ([1]; replicate 2, read-out: Inh % 2): -4.5% | inhibition at 11.11 µM ([1]; replicate 1, read-out: Inh % 1): -9.3% | inhibition at 11.11 µM ([1]; replicate 2, read-out: Inh % 2): -8.6% | inhibition at 33.33 µM ([1]; replicate 1, read-out: Inh % 1): 3.2% | inhibition at 33.33 µM ([1]; replicate 2, read-out: Inh % 2): -1.4% | inhibition at 100 µM ([1]; replicate 1, read-out: Inh % 1): 39.9% | inhibition at 100 µM ([1]; replicate 2, read-out: Inh % 2): 37.2% | LogIC50 ([2]; CAPAN-1, curve-fit output, Log (uM)): 2.153 | inhibition at 0.00508 µM ([2]; CAPAN-1, 0.00508 uM, replicate 1, read-out: Inh % 1): 2.8% | inhibition at 0.00508 µM ([2]; CAPAN-1, 0.00508 uM, replicate 2, read-out: Inh % 2): -6.9% | inhibition at 0.0152 µM ([2]; CAPAN-1, 0.0152 uM, replicate 1, read-out: Inh % 1): 3.5% | inhibition at 0.0152 µM ([2]; CAPAN-1, 0.0152 uM, replicate 2, read-out: Inh % 2): 0.5% | inhibition at 0.0457 µM ([2]; CAPAN-1, 0.0457 uM, replicate 1, read-out: Inh % 1): 5% | inhibition at 0.0457 µM ([2]; CAPAN-1, 0.0457 uM, replicate 2, read-out: Inh % 2): 0.2% | inhibition at […] ([2]; CAPAN-1, 0.14 uM, replicate 1, read-out: Inh % 1): -1.8% | inhibition at […] ([2]; CAPAN-1, 0.14 uM, replicate 2, read-out: Inh % 2): -3% | inhibition at 0.41 µM ([2]; CAPAN-1, 0.41 uM, replicate 1, read-out: Inh % 1): 6.4% | inhibition at 0.41 µM ([2]; CAPAN-1, 0.41 uM, replicate 2, read-out: Inh % 2): 6.3% | inhibition at 1.23 µM ([2]; CAPAN-1, 1.23 uM, replicate 1, read-out: Inh % 1): -2.4% | inhibition at 1.23 µM ([2]; CAPAN-1, 1.23 uM, replicate 2, read-out: Inh % 2): -3.6% | inhibition at 3.7 µM ([2]; CAPAN-1, 3.70 uM, replicate 1, read-out: Inh % 1): 7.7% | inhibition at 3.7 µM ([2]; CAPAN-1, 3.70 uM, replicate 2, read-out: Inh % 2): 10.2% | inhibition at 11.11 µM ([2]; CAPAN-1, 11.11 uM, replicate 1, read-out: Inh % 1): 2.2% | inhibition at 11.11 µM ([2]; CAPAN-1, 11.11 uM, replicate 2, read-out: Inh % 2): 3% | inhibition at 33.33 µM ([2]; CAPAN-1, 33.33 uM, replicate 1, read-out: Inh % 1): 29.9% | inhibition at 33.33 µM ([2]; CAPAN-1, 33.33 uM, replicate 2, read-out: Inh % 2): 20.6% | inhibition at 100 µM ([2]; CAPAN-1, 100.00 uM, replicate 1, read-out: Inh % 1): 46.6% | inhibition at 100 µM ([2]; CAPAN-1, 100.00 uM, replicate 2, read-out: Inh % 2): 35.5%

— publication PMC6572064, “Discovery of 2-(1-(3-(4-Chloroxyphenyl)-3-oxo- propyl)pyrrolidine-3-yl)-1H-benzo[d]imidazole-4-carboxamide: A Potent Poly(ADP-ribose) Polymerase (PARP) Inhibitor for Treatment of Cancer” (Molecules, 2019)
